Each block holds one compound with its values, some of them ahead of it.
Biological target: human chemokine receptor CXCR7 (Homo sapiens (Human), UniProt P25106)
Experiment: Tango CXCR7-bla U2OS beta-arrestin recruitment assay (beta-lactamase reporter, FRET), antagonism of CXCL12/SDF1-α;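 note: compounds preincubated 15 min before CXCL12 addition, then 22 h at 37 °C, FRET emission ratio read with CCF4-AM substrate after 2 h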
Type: cell-based
Settings: antagonistic effect on CXCR7; Tango CXCR7-bla U2OS cells, CXCL12/SDF1-α at its EC80

Chain of human chemokine receptor CXCR7 (P25106 whole entry): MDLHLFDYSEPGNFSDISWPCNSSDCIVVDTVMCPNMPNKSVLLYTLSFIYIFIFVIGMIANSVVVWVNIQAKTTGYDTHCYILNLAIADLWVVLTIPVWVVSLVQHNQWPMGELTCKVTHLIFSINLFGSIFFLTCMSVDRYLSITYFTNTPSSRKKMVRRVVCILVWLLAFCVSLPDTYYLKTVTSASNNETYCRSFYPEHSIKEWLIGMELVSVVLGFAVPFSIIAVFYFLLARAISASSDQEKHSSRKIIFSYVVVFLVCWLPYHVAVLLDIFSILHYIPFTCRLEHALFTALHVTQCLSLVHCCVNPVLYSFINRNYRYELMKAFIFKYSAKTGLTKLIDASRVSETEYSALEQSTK

Structure (SMILES): CN(C)C(=O)[C@@H]1CN(C2CCCCC2)CC[C@H]1NC(=O)c1cn(-c2ccc(F)cc2F)nn1 (racemic) [Example 1.095, rac-(3R*,4R*)-1-Cyclohexyl-4-{[1-(2,4-difluoro-phenyl)-1H-[1,2,3]triazole-4-carbonyl]-amino}-piperidine-3-carboxylic acid dimethylamide]
IC50: 254 nM

Structure (SMILES): CN(C)C(=O)[C@@H]1CN(C2CCCC2)CC[C@H]1NC(=O)c1cn(-c2ccc(F)cc2F)nn1 (racemic) [Example 1.096, rac-(3R*,4R*)-1-Cyclopentyl-4-{[1-(2,4-difluoro-phenyl)-1H-[1,2,3]triazole-4-carbonyl]-amino}-piperidine-3-carboxylic acid dimethylamide]
IC50: 667 nM

Structure (SMILES): CN(C)C(=O)[C@@H]1CN(CC2CC2)CC[C@H]1NC(=O)c1cn(-c2ccc(F)cc2F)nn1 (racemic) [Example 1.097, rac-(3R*,4R*)-1-Cyclopropylmethyl-4-{[1-(2,4-difluoro-phenyl)-1H-[1,2,3]triazole-4-carbonyl]-amino}-piperidine-3-carboxylic acid dimethylamide]
IC50: 442 nM

Structure (SMILES): CN(C)C(=O)[C@@H]1CN(C2CCCCC2)CC[C@H]1NC(=O)c1cc(-c2ccc(F)cc2F)no1 (racemic) [Example 1.102, rac-(3R*,4R*)-1-Cyclohexyl-4-{[3-(2,4-difluoro-phenyl)-isoxazole-5-carbonyl]-amino}-piperidine-3-carboxylic acid dimethylamide]
IC50: 111 nM

Structure (SMILES): CN(C)C(=O)[C@@H]1CN(C2CCCC2)CC[C@H]1NC(=O)c1cc(-c2ccc(F)cc2F)no1 (racemic) [Example 1.103, rac-(3R*,4R*)-1-Cyclopentyl-4-{[3-(2,4-difluoro-phenyl)-isoxazole-5-carbonyl]-amino}-piperidine-3-carboxylic acid dimethylamide]
IC50: 274 nM

Structure (SMILES): O=C(N[C@@H]1CCN(C2CCCCC2)C[C@H]1C(=O)N1CCC1)c1cn(-c2ccc(F)cc2F)nn1 (racemic) [Example 1.104, rac-1-(2,4-Difluoro-phenyl)-1H-[1,2,3]triazole-4-carboxylic acid [(3R*,4R*)-3-(azetidine-1-carbonyl)-1-cyclohexyl-piperidin-4-yl]-amide]
IC50: 964 nM

Structure (SMILES): COCC(C)(C)NC(=O)[C@@H]1CN(C2CCCC2)CC[C@H]1NC(=O)c1cn(-c2ccc(F)cc2F)nn1 (racemic) [Example 1.109, rac-(3R*,4R*)-1-Cyclopentyl-4-{[1-(2,4-difluoro-phenyl)-1H-[1,2,3]triazole-4-carbonyl]-amino}-piperidine-3-carboxylic acid (2-methoxy-1,1-dimethyl-ethyl)-amide]
IC50: 902 nM

Structure (SMILES): C[C@@H](NC(=O)[C@@H]1CN(C2CCCCC2)CC[C@H]1NC(=O)c1cc(-c2c(F)cc(F)cc2F)on1)c1ccccn1 (racemic) [Example 1.121, (3R*,4R*)-1-Cyclohexyl-4-{[5-(2,4,6-trifluoro-phenyl)-isoxazole-3-carbonyl]-amino}-piperidine-3-carboxylic acid ((R)-1-pyridin-2-yl-ethyl)-amide]
IC50: 4 nM

Structure (SMILES): O=C(N[C@@H]1CCN(C2CCCCC2)C[C@H]1C(=O)NC1(c2ccc(F)cn2)CC1)c1cn(-c2ccc(F)cc2F)nn1 (racemic) [Example 1.142, rac-(3R*,4R*)-1-Cyclohexyl-4-{[1-(2,4-difluoro-phenyl)-1H-[1,2,3]triazole-4-carbonyl]-amino}-piperidine-3-carboxylic acid [1-(5-fluoro-pyridin-2-yl)-cyclopropyl]-amide]
IC50: 472 nM

Structure (SMILES): O=C(N[C@@H]1CCN(C2CCCCC2)C[C@H]1C(=O)NC1(c2ccc(F)cn2)CC1)c1cc(-c2c(F)cc(F)cc2F)on1 (racemic) [Example 1.143, rac-(3R*,4R*)-1-Cyclohexyl-4-{[5-(2,4,6-trifluoro-phenyl)-isoxazole-3-carbonyl]-amino}-piperidine-3-carboxylic acid [1-(5-fluoro-pyridin-2-yl)-cyclopropyl]-amide]
IC50: 719 nM

Structure (SMILES): CN(C)C(=O)[C@@H]1CN(CC2CC2)CC[C@H]1NC(=O)c1cc(-c2ccc(F)cc2F)no1 (racemic) [Example 1.149, rac-(3R*,4R*)-1-Cyclopropylmethyl-4-{[3-(2,4-difluoro-phenyl)-isoxazole-5-carbonyl]-amino}-piperidine-3-carboxylic acid dimethylamide]
IC50: 276 nM

Further lines, results first:

IC50: 510 nM
Structure (SMILES): CC(C)(CF)NC(=O)[C@@H]1CN(C2CCCCC2)CC[C@H]1NC(=O)c1cc(-c2ccc(F)cc2F)on1 (racemic) [Example 1.079, rac-(3R*,4R*)-1-Cyclohexyl-4-{[5-(2,4-difluoro-phenyl)-isoxazole-3-carbonyl]-amino}-piperidine-3-carboxylic acid (2-fluoro-1,1-dimethyl-ethyl)-amide]

IC50: 118 nM
Structure (SMILES): CC(C)(CS(C)(=O)=O)NC(=O)[C@@H]1CN(C2CCCCC2)CC[C@H]1NC(=O)c1cc(-c2ccc(F)cc2F)on1 (racemic) [Example 1.081, rac-(3R*,4R*)-1-Cyclohexyl-4-{[5-(2,4-difluoro-phenyl)-isoxazole-3-carbonyl]-amino}-piperidine-3-carboxylic acid (2-methanesulfonyl-1,1-dimethyl-ethyl)-amide]

IC50: 244 nM
Structure (SMILES): CC(C)(CO)NC(=O)[C@@H]1CN(C2CCCCC2)CC[C@H]1NC(=O)c1cc(-c2ccc(F)cc2F)on1 (racemic) [Example 1.088, rac-(3R*,4R*)-1-Cyclohexyl-4-{[5-(2,4-difluoro-phenyl)-isoxazole-3-carbonyl]-amino}-piperidine-3-carboxylic acid (2-hydroxy-1,1-dimethyl-ethyl)-amide]

IC50: 131 nM
Structure (SMILES): CN(C)C(=O)[C@@H]1CN(C2CCCC2)CC[C@H]1NC(=O)c1cc(-c2c(F)cc(F)cc2F)on1 (racemic) [Example 1.099, rac-(3R*,4R*)-1-Cyclopentyl-4-{[5-(2,4,6-trifluoro-phenyl)-isoxazole-3-carbonyl]-amino}-piperidine-3-carboxylic acid dimethylamide]

IC50: 430 nM
Structure (SMILES): O=C(N[C@@H]1CCN(C2CCCCC2)C[C@H]1C(=O)N1CCC1)c1cc(-c2c(F)cc(F)cc2F)on1 (racemic) [Example 1.105, rac-5-(2,4,6-Trifluoro-phenyl)-isoxazole-3-carboxylic acid [(3R*,4R*)-3-(azetidine-1-carbonyl)-1-cyclohexyl-piperidin-4-yl]-amide]

IC50: 248 nM
Structure (SMILES): O=C(N[C@@H]1CCN(C2CCCC2)C[C@H]1C(=O)N1CCC1)c1cc(-c2c(F)cc(F)cc2F)on1 (racemic) [Example 1.106, rac-5-(2,4,6-Trifluoro-phenyl)-isoxazole-3-carboxylic acid [(3R*,4R*)-3-(azetidine-1-carbonyl)-1-cyclopentyl-piperidin-4-yl]-amide]

IC50: 520 nM
Structure (SMILES): O=C(N[C@@H]1CCN(CC2CC2)C[C@H]1C(=O)N1CCC1)c1cc(-c2c(F)cc(F)cc2F)on1 (racemic) [Example 1.107, rac-5-(2,4,6-Trifluoro-phenyl)-isoxazole-3-carboxylic acid [(3R*,4R*)-3-(azetidine-1-carbonyl)-1-cyclopropylmethyl-piperidin-4-yl]-amide]

IC50: 332 nM
Structure (SMILES): COCC(C)(C)NC(=O)[C@@H]1CN(C2CCCCC2)CC[C@H]1NC(=O)c1cc(-c2c(F)cc(F)cc2F)on1 (racemic) [Example 1.111, rac-(3R*,4R*)-1-Cyclohexyl-4-{[5-(2,4,6-trifluoro-phenyl)-isoxazole-3-carbonyl]-amino}-piperidine-3-carboxylic acid (2-methoxy-1,1-dimethyl-ethyl)-amide]

IC50: 227 nM
Structure (SMILES): COCC(C)(C)NC(=O)[C@@H]1CN(C2CCCC2)CC[C@H]1NC(=O)c1cc(-c2c(F)cc(F)cc2F)on1 (racemic) [Example 1.112, rac-(3R*,4R*)-1-Cyclopentyl-4-{[5-(2,4,6-trifluoro-phenyl)-isoxazole-3-carbonyl]-amino}-piperidine-3-carboxylic acid (2-methoxy-1,1-dimethyl-ethyl)-amide]

IC50: 118 nM
Structure (SMILES): COCC(C)(C)NC(=O)[C@@H]1CN(CC2CC2)CC[C@H]1NC(=O)c1cc(-c2c(F)cc(F)cc2F)on1 (racemic) [Example 1.113, rac-(3R*,4R*)-1-Cyclopropylmethyl-4-{[5-(2,4,6-trifluoro-phenyl)-isoxazole-3-carbonyl]-amino}-piperidine-3-carboxylic acid (2-methoxy-1,1-dimethyl-ethyl)-amide]

IC50: 566 nM
Structure (SMILES): COCC(C)(C)NC(=O)[C@@H]1CN(C2CCCCC2)CC[C@H]1NC(=O)c1cc(-c2ccc(F)cc2F)no1 (racemic) [Example 1.115, rac-(3R*,4R*)-1-Cyclohexyl-4-{[3-(2,4-difluoro-phenyl)-isoxazole-5-carbonyl]-amino}-piperidine-3-carboxylic acid (2-methoxy-1,1-dimethyl-ethyl)-amide]

IC50: 614 nM
Structure (SMILES): COCC(C)(C)NC(=O)[C@@H]1CN(C2CCCC2)CC[C@H]1NC(=O)c1cc(-c2ccc(F)cc2F)no1 (racemic) [Example 1.116, rac-(3R*,4R*)-1-Cyclopentyl-4-{[3-(2,4-difluoro-phenyl)-isoxazole-5-carbonyl]-amino}-piperidine-3-carboxylic acid (2-methoxy-1,1-dimethyl-ethyl)-amide]

IC50: 105 nM
Structure (SMILES): C[C@@H](NC(=O)[C@@H]1CN(C2CCCCC2)CC[C@H]1NC(=O)c1cc(-c2c(F)cc(F)cc2F)on1)c1cnccn1 (racemic) [Example 1.129, (3R*,4R*)-1-Cyclohexyl-4-{[5-(2,4,6-trifluoro-phenyl)-isoxazole-3-carbonyl]-amino}-piperidine-3-carboxylic acid ((R)-1-pyrazin-2-yl-ethyl)-amide]

IC50: 816 nM
Structure (SMILES): C[C@@H](NC(=O)[C@@H]1CN(C2CCCC2)CC[C@H]1NC(=O)c1cc(-c2c(F)cc(F)cc2F)on1)C1CCC1 (racemic) [Example 1.138, (3R*,4R*)-1-Cyclopentyl-4-{[5-(2,4,6-trifluoro-phenyl)-isoxazole-3-carbonyl]-amino}-piperidine-3-carboxylic acid ((R)-1-cyclobutyl-ethyl)-amide]

IC50: 178 nM
Structure (SMILES): O=C(N[C@@H]1CCN(CC2CC2)C[C@H]1C(=O)NC1(c2ccc(F)cn2)CC1)c1cc(-c2c(F)cc(F)cc2F)on1 (racemic) [Example 1.144, rac-(3R*,4R*)-1-Cyclopropylmethyl-4-{[5-(2,4,6-trifluoro-phenyl)-isoxazole-3-carbonyl]-amino}-piperidine-3-carboxylic acid [1-(5-fluoro-pyridin-2-yl)-cyclopropyl]-amide]

Reference: US11306078B2, “Piperidine CXCR7 receptor modulators” (IDORSIA PHARMACEUTICALS LTD., priority 2016, dated 2022)
